Assay results taken from publication PMC8405091, “Microwave-assisted Phospha-Michael addition reactions in the 13α-oestrone series and in vitro antiproliferative properties” (Journal of Enzyme Inhibition and Medicinal Chemistry, 2021).

Tests used:
[1] = tested on: non-cancerous mouse embryo fibroblast (NIH/3T3) cells; test: MTT assay on non-cancerous fibroblasts (tumour selectivity); format: cell-based; conditions: for inhibition at 10 µM / inhibition at 30 µM / IC50: Mus musculus, NIH3T3, 72 h; for inhibition at 10 µM / inhibition at 30 µM: read-out: Growth inhibition, % ± SEM; for IC50: read-out: calculated IC50 value
Description: (§1) The antiproliferative properties of the newly synthesized compounds (9–20) and their starting materials (4 and 5) were determined on a panel of human adherent cancer cell lines. MCF-7, MDA-MB-231 and T47D were isolated from breast cancers differing in biochemical background, while A2780 cells were isolated from ovarian cancer. HeLa and SiHa are cervical cancer cell lines positive for HPV-18 and HPV-16, respectively, while C33-A cervical cancer cells are negative for HPV. Moreover, two oropharyngeal cancer cell lines were also utilized: the HPV-negative UPCI-SCC-131 and HPV-16 positive UPCI-SCC-154. The cancer selectivity of compounds was tested on the non-cancerous mouse embryo fibroblast cell line NIH/3T3. All cell lines were purchased from European Collection of Cell Cultures (ECCAC, Salisbury, UK) exception for SiHa and C33-A (American Tissue Culture Collection, Manassas, VA, USA) and HN-SCC-131 and UPCI-SCC-154 (German Collection of Microorganisms and Cell Cultures GmbH, Braunschweig, Germany). Cells were cultivated in minimal essential medium supplemented with 10% fetal bovine serum, 1% non-essential amino acids and an antibiotic–antimycotic mixture. The medium of oropharyngeal cancer cells additionally contained 2.0 mM L-glutamine. All media and supplements were obtained from Lonza Group Ltd., Basel, Switzerland. Near-confluent cancer cells were seeded onto a 96-well microplate at a density of 5,000 cells/well, except for C33-A which were seeded at 10,000/well. After overnight standing, new medium containing the tested compounds at 10 and 30 µM final concentration was added. After incubation for 72 h at 37 °C in humidified air containing 5% CO2, the living cells were assayed by the addition of 20 μL of 5 mg/ml 3-(4,5-dimethylthiazol-2-yl)-2,5-diphenyltetrazolium bromide (MTT) solution. MTT was converted by intact mitochondrial reductase and precipitated as purple crystals during a 4-h contact period. The medium was next removed and the precipitated formazan crystals were dissolved in 100 μL of DMSO during a 60-min period of shaking at 37 ^оC.
(§2) All in vitro experiments were carried out twice with five parallels. Stock solutions of the tested substances (10 mM) were prepared in DMSO. […] Cisplatin (Ebewe Pharma GmbH, Unterach, Austria) was used as positive control.

MCF-7 cells = test: MTT antiproliferative assay, MCF-7; format: cell-based, human; conditions: Homo sapiens, MCF7, 72 h; for inhibition at 10 µM / inhibition at 30 µM: read-out: Growth inhibition, % ± SEM, 72 h; for inhibition at 10 µM: MCF-7, 10 μM; for inhibition at 30 µM: MCF-7, 30 μM; for IC50: read-out: calculated IC50 value
Description: as §1, §2

UPCI-SCC-131 cells = test: MTT antiproliferative assay, UPCI-SCC-131; format: cell-based, human; conditions: Homo sapiens, 72 h, 72 h; for inhibition at 10 µM / inhibition at 30 µM: read-out: Growth inhibition, % ± SEM; for inhibition at 10 µM: UPCI-SCC-131, 10 μM; for inhibition at 30 µM: UPCI-SCC-131, 30 μM; for IC50: read-out: calculated IC50 value
Description: as §1, §2

UPCI-SCC-154 cells = test: MTT antiproliferative assay, UPCI-SCC-154; format: cell-based, human; conditions: Homo sapiens, 72 h, 72 h; for inhibition at 10 µM / inhibition at 30 µM: read-out: Growth inhibition, % ± SEM; for inhibition at 10 µM: UPCI-SCC-154, 10 μM; for inhibition at 30 µM: UPCI-SCC-154, 30 μM; for IC50: read-out: calculated IC50 value
Description: as §1, §2

T47D cells = test: MTT antiproliferative assay, T47D; format: cell-based, human; conditions: Homo sapiens, 72 h; for inhibition at 10 µM: read-out: Growth inhibition, % ± SEM, 10 μM; for inhibition at 30 µM: read-out: Growth inhibition, % ± SEM, 30 μM; for IC50: read-out: calculated IC50 value
Description: as §1, §2

MDA-MB-231 cells = test: MTT antiproliferative assay, MDA-MB-231; format: cell-based, human; conditions: Homo sapiens, MDA-MB-231, 72 h; for inhibition at 10 µM / inhibition at 30 µM: read-out: Growth inhibition, % ± SEM; for IC50: read-out: calculated IC50 value
Description: as §1, §2

SiHa cells = test: MTT antiproliferative assay, SiHa; format: cell-based, human; conditions: Homo sapiens, 72 h; for inhibition at 10 µM: read-out: Growth inhibition, % ± SEM, 10 μM; for inhibition at 30 µM: read-out: Growth inhibition, % ± SEM, 30 μM; for IC50: read-out: calculated IC50 value
Description: as §1, §2

HeLa cells = test: MTT antiproliferative assay, HeLa; format: cell-based, human; conditions: Homo sapiens, 72 h; for inhibition at 10 µM: read-out: Growth inhibition, % ± SEM, 10 μM; for inhibition at 30 µM: read-out: Growth inhibition, % ± SEM, 30 μM; for IC50: read-out: calculated IC50 value
Description: as §1, §2

A2780 cells = test: MTT antiproliferative assay, A2780; format: cell-based, human; conditions: Homo sapiens, A2780, 72 h; for inhibition at 10 µM / inhibition at 30 µM: read-out: Growth inhibition, % ± SEM, 72 h; for inhibition at 10 µM: A2780, 10 μM; for inhibition at 30 µM: A2780, 30 μM; for IC50: read-out: calculated IC50 value
Description: as §1, §2

C33-A cells = test: MTT antiproliferative assay, C33-A; format: cell-based, human; conditions: Homo sapiens, C-33-A, 72 h; for inhibition at 10 µM: read-out: Growth inhibition, % ± SEM, C33-A, 10 μM; for inhibition at 30 µM: read-out: Growth inhibition, % ± SEM, C33-A, 30 μM; for IC50: read-out: calculated IC50 value
Description: as §1, §2

[2] = tested on: panel of human adherent cancer cell lines; test: MTT antiproliferative assay, whole panel of cell lines; format: cell-based; conditions: read-out: IC50 (span over the panel)
Description: as §1, with “^оC. […]” for “^оC.”

Structure (SMILES) | inhibition at 10 µM [1] | inhibition at 30 µM [1] | IC50 [1] | inhibition at 10 µM (MCF-7 cells) | inhibition at 30 µM (MCF-7 cells) | IC50 (MCF-7 cells) | inhibition at 10 µM (UPCI-SCC-131 cells) | inhibition at 30 µM (UPCI-SCC-131 cells) | IC50 (UPCI-SCC-131 cells) | inhibition at 10 µM (UPCI-SCC-154 cells) | inhibition at 30 µM (UPCI-SCC-154 cells) | IC50 (UPCI-SCC-154 cells) | inhibition at 10 µM (T47D cells) | inhibition at 30 µM (T47D cells) | IC50 (T47D cells) | inhibition at 10 µM (MDA-MB-231 cells) | inhibition at 30 µM (MDA-MB-231 cells) | IC50 (MDA-MB-231 cells) | inhibition at 10 µM (SiHa cells) | inhibition at 30 µM (SiHa cells) | other results
COc1ccc2c(c1)CC[C@@H]1[C@@H]2CC[C@@]2(C)C(=O)[C@H](CP(=O)(c3ccccc3)c3ccccc3)C[C@@H]12 [Compound 9, [(3-methoxy-17-oxo-13α-oestra-1,3,5(10)-trien-16α-yl)methyl]diphenylphosphine oxide] | < 20% | 96.55 ± 0.86% | 20.4 µM | 21.3 ± 2.79% | 93.1 ± 1.6% | 13.7 µM | 63.4 ± 1.41% | 99.35 ± 0.27% | 5.3 µM | < 20% | 99.8 ± 1.48% | 13.5 µM | 57.5 ± 3.15% | 93.77 ± 0.55% | 7.2 µM | < 20% | 99.03 ± 0.73% | 23.5 µM | < 20% | 96.5 ± 1.24% | Tumour selectivity: IC50 on NIH/3T3 relative to IC50 on UPCI-SCC-131 ([1]; NIH/3T3 vs UPCI-SCC-131): four times higher; IC50 (SiHa cells): 13.8 µM; inhibition at 10 µM (HeLa cells): < 20%; inhibition at 30 µM (HeLa cells): 97.59 ± 0.73%; IC50 (HeLa cells): 12.9 µM; inhibition at 10 µM (A2780 cells): 47.2 ± 2.75%; inhibition at 30 µM (A2780 cells): 98.99 ± 0.41%; IC50 (A2780 cells): 11.7 µM; inhibition at 10 µM (C33-A cells): < 20%; inhibition at 30 µM (C33-A cells): 97.85 ± 0.32%; IC50 (C33-A cells): 13.3 µM
C[C@@]12CC[C@@H]3c4ccc(OCc5ccccc5)cc4CC[C@H]3[C@@H]1C[C@H](CP(=O)(c1ccccc1)c1ccccc1)C2=O [Compound 12, [(3-benzyloxy-17-oxo-13α-oestra-1,3,5(10)-trien-16β-yl)methyl]diphenylphosphine oxide] | < 20% | 48.3 ± 1.65% | 30.9 µM | < 20% | 90.2 ± 1.61% | 16.4 µM | 49.4 ± 2.06% | 90 ± 1.15% | 14.2 µM | < 20% | 75.5 ± 1.84% | 29.8 µM | 31.4 ± 1.55% | 75 ± 1.65% | 17 µM | < 20% | 84 ± 2.61% | 24.5 µM | < 20% | 94.8 ± 1.48% | IC50 (SiHa cells): 14.1 µM; inhibition at 10 µM (HeLa cells): < 20%; inhibition at 30 µM (HeLa cells): 96.4 ± 1.88%; IC50 (HeLa cells): 13.6 µM; IC50 [2]: 13.6 to 29.8 µM; inhibition at 10 µM (A2780 cells): < 20%; inhibition at 30 µM (A2780 cells): 97.14 ± 0.55%; IC50 (A2780 cells): 28.5 µM; inhibition at 10 µM (C33-A cells): < 20%; inhibition at 30 µM (C33-A cells): 97.68 ± 0.85%; IC50 (C33-A cells): 13.6 µM
